Measurements taken from patent US7045343B2, “Sterilization indicator test packs” (3M Innovative Properties Company, priority 1998, dated 2006).

Legend:
[1] = system: enzyme associated with Bacillus stearothermophilus spores; test: Rapid enzyme fluorescence readout of dual rapid readout indicators after prevacuum steam sterilization; type: biochemical; details: 4-pulse prevacuum steam 121° C.
Method: (§1) The indicators prepared for the Examples were dual rapid readout indicators that provided both a rapid, enzyme-based efficacy test and a confirmatory spore outgrowth test. Spores coated on the carrier strip 16 served as the source of active enzyme whose activity was measured by the rapid enzyme test. These same spores were then incubated in the spore outgrowth portion of the test.
(§2) Bacillus stearothermophilus, commercially available as ATCC 7953 from American Type Culture Collection, Rockville, Md., was grown overnight (16 hours) at 58° C. in tryptic soy broth. This culture was used to inoculate the surface of agar plates consisting of 8 g/l nutrient broth, 4 g/l yeast extract, 0.1 g/l manganese chloride and 20 g/l agar at pH 7.2. Plates were incubated at 58° C. for 72 hours. Spores were scraped from the plates and suspended in sterile distilled water. The spores were separated from the vegetative debris by centrifuging the suspension at 7000 rpm and 4° C. for 20 minutes. The supernatant was poured off and the spores were resuspended in sterile distilled water. The cleaning procedure was repeated several times. After the final wash, the spores were suspended in sterile distilled water, at a concentration of approximately 1×10^8 spores per milliliter.
(§3) The spores were then treated with the chemicals identified in Tables 1–5. All chemicals tested were obtained from commercial sources. The spores were centrifuged at 6000 rpm for 10 minutes. The supernatant and coating chemical mixtures were heated at 60–80° C. for several minutes and vortexed to get the material into solution. The spores were then mixed into the sterilant-resistant chemical solution. The sterilant-resistant chemical solution was applied to 5×25 mm, 591 A paper strips (Schleicher & Schuell, Inc., Keene, N.H.) by pipetting 10–15 microliters to each strip for a final population of about 1×10^6 spores per strip. The strips were dried 16 hours at 37° C.
(§4) The treated spore strips were placed on the bottom of the outer container 12 of the indicator 10 and a barrier was inserted between the spore strip 16 and the inner container 18, which contained enzyme substrate. A […] ( 11/16 inch) disc of polypropylene blown microfiber material, with a weight of 200 g/m^2, commercially available as “THINSULATE™ 200-B brand Thermal Insulation” from 3M Company, St. Paul, Minn., was used as the barrier. The inner container 18 contained 0.67 ml nutrient medium, consisting of 17 g of a bacteriological peptone and a 0.17 g/l of L-alanine, as well as 0.1 g 4-methylumbelliferyl-alpha-D-glucoside, commercially available from Sigma Chemical Company, St. Louis, Mo., dissolved in 200 microliters of N,N-dimethylformamide, and 0.03 g bromocresol purple pH indicator dye, per liter of water. The pH of the enzyme substrate and nutrient medium solution was adjusted to 7.6 with 0.1N sodium hydroxide.
(§5) Sterilization indicators were made as described above with each of the chemicals and concentrations described in Table 1. Control indicators were made using untreated spores. The indicators were placed in metal instrument trays and exposed at 121° C. in a Getinge Steam Sterilizer (Getinge International, Inc., 1100 Towbin Ave., Lakewood, N.J.) using a 4-pulse prevacuum cycle at 121° C. with a vacuum level of 0.075–0.085 bar and a steam pulse to 1.00 bar for each pulse. Indicators were exposed in the sterilizer for between 7 and 13 minutes. This cycle is depicted in the time-pressure diagram in FIG. 5. After exposure the inner containers containing the enzyme substrate and nutrient medium were crushed and the indicators were incubated at 60° C. The indicators were examined for fluorescence using a 3M™ ATTEST™ Model 190 Rapid Autoreader, commercially available from 3M Company, St. Paul, Minn. Additionally, spore growth, as indicated by a color change from purple to yellow, was determined visually after 168 hours of incubation at 60° C. […]

[2] = system: Bacillus stearothermophilus spores; test: Spore outgrowth (color change) of indicators after prevacuum steam sterilization; type: cell-based; details: 4-pulse prevacuum steam 121° C.
Method: as §1, §2, §3, §4, §5

[3] = Example 2, 5 mg/ml coating, 7–13 min
[4] = Example 2, 10 mg/ml coating, 7–13 min
[5] = Example 2, 20 mg/ml coating, 7–13 min
[6] = Example 2, 40 mg/ml coating, 7–13 min
[7] = Example 2, 80 mg/ml coating, 7–13 min
[8] = Example 1, 5 mg/ml coating, 7–13 min
[9] = Example 1, 10 mg/ml coating, 7–13 min
[10] = Example 1, 20 mg/ml coating, 7–13 min
[11] = Example 4, 25 mg/ml coating, 7–18 min
[12] = Example 4, 50 mg/ml coating, 7–18 min
[13] = Example 4, 100 mg/ml coating, 7–18 min
[14] = Example 3, 100 mg/ml coating, 7–15 min
[15] = Example 5, 50 mg/ml coating, 7–13 min

OCC(O)COCC(O)COCC(O)CO (stereo not shown) [Triglycerol]
accuracy of sterilization indicators compared to indicators made with untreated spores [1]: did not improve the accuracy
FLUORESCENCE - PERCENT POSITIVE 1 HR [1, 3]: 0%
FLUORESCENCE - PERCENT POSITIVE 2 HR [1, 3]: 0%
FLUORESCENCE - PERCENT POSITIVE 3 HR [1, 3]: 0%
FLUORESCENCE - PERCENT POSITIVE 4 HR [1, 3]: 10.0%
FLUORESCENCE - PERCENT POSITIVE 5 HR [1, 3]: 30.0%
FLUORESCENCE - PERCENT POSITIVE 6 HR [1, 3]: 40.0%
FLUORESCENCE - PERCENT POSITIVE 1 HR [1, 4]: 0%
FLUORESCENCE - PERCENT POSITIVE 2 HR [1, 4]: 6.7%
FLUORESCENCE - PERCENT POSITIVE 3 HR [1, 4]: 20.0%
FLUORESCENCE - PERCENT POSITIVE 4 HR [1, 4]: 26.7%
FLUORESCENCE - PERCENT POSITIVE 5 HR [1, 4]: 53.3%
FLUORESCENCE - PERCENT POSITIVE 6 HR [1, 4]: 60.0%
FLUORESCENCE - PERCENT POSITIVE 1 HR [1, 5]: 0%
FLUORESCENCE - PERCENT POSITIVE 2 HR [1, 5]: 0%
FLUORESCENCE - PERCENT POSITIVE 3 HR [1, 5]: 8.3%
FLUORESCENCE - PERCENT POSITIVE 4 HR [1, 5]: 29.2%
FLUORESCENCE - PERCENT POSITIVE 5 HR [1, 5]: 41.7%
FLUORESCENCE - PERCENT POSITIVE 6 HR [1, 5]: 45.8%
FLUORESCENCE - PERCENT POSITIVE 1 HR [1, 6]: 0%
FLUORESCENCE - PERCENT POSITIVE 2 HR [1, 6]: 0%
FLUORESCENCE - PERCENT POSITIVE 3 HR [1, 6]: 29.6%
FLUORESCENCE - PERCENT POSITIVE 4 HR [1, 6]: 48.1%
FLUORESCENCE - PERCENT POSITIVE 5 HR [1, 6]: 51.9%
FLUORESCENCE - PERCENT POSITIVE 6 HR [1, 6]: 63.0%
FLUORESCENCE - PERCENT POSITIVE 1 HR [1, 7]: 0%
FLUORESCENCE - PERCENT POSITIVE 2 HR [1, 7]: 3.2%
FLUORESCENCE - PERCENT POSITIVE 3 HR [1, 7]: 38.7%
FLUORESCENCE - PERCENT POSITIVE 4 HR [1, 7]: 51.6%
FLUORESCENCE - PERCENT POSITIVE 5 HR [1, 7]: 58.1%
FLUORESCENCE - PERCENT POSITIVE 6 HR [1, 7]: 64.5%
NO. GROWTH POSITIVE 168 HR [2, 3]: 10
NO. GROWTH POSITIVE 168 HR [2, 4]: 15
NO. GROWTH POSITIVE 168 HR [2, 5]: 24
NO. GROWTH POSITIVE 168 HR [2, 6]: 27
NO. GROWTH POSITIVE 168 HR [2, 7]: 31

Hexaglyceryl Monostearate
FLUORESCENCE - PERCENT POSITIVE 1 HR [1, 8]: 0%
FLUORESCENCE - PERCENT POSITIVE 2 HR [1, 8]: 32.0%
FLUORESCENCE - PERCENT POSITIVE 3 HR [1, 8]: 78.0%
FLUORESCENCE - PERCENT POSITIVE 4 HR [1, 8]: 84.0%
FLUORESCENCE - PERCENT POSITIVE 5 HR [1, 8]: 90.0%
FLUORESCENCE - PERCENT POSITIVE 6 HR [1, 8]: 94.0%
FLUORESCENCE - PERCENT POSITIVE 1 HR [1, 9]: 0%
FLUORESCENCE - PERCENT POSITIVE 2 HR [1, 9]: 31.8%
FLUORESCENCE - PERCENT POSITIVE 3 HR [1, 9]: 63.6%
FLUORESCENCE - PERCENT POSITIVE 4 HR [1, 9]: 79.5%
FLUORESCENCE - PERCENT POSITIVE 5 HR [1, 9]: 84.1%
FLUORESCENCE - PERCENT POSITIVE 6 HR [1, 9]: 86.4%
FLUORESCENCE - PERCENT POSITIVE 1 HR [1, 10]: 0%
FLUORESCENCE - PERCENT POSITIVE 2 HR [1, 10]: 61.4%
FLUORESCENCE - PERCENT POSITIVE 3 HR [1, 10]: 86.4%
FLUORESCENCE - PERCENT POSITIVE 4 HR [1, 10]: 95.5%
FLUORESCENCE - PERCENT POSITIVE 5 HR [1, 10]: 97.7%
FLUORESCENCE - PERCENT POSITIVE 6 HR [1, 10]: 97.7%
NO. GROWTH POSITIVE 168 HR [2, 8]: 50
NO. GROWTH POSITIVE 168 HR [2, 9]: 44
NO. GROWTH POSITIVE 168 HR [2, 10]: 44

Hexaglyceryl Distearate
accuracy of sterilization indicators compared to indicators made with untreated spores [1]: improved
FLUORESCENCE - PERCENT POSITIVE 1 HR [1, 11]: 27.6%
FLUORESCENCE - PERCENT POSITIVE 2 HR [1, 11]: 51.7%
FLUORESCENCE - PERCENT POSITIVE 3 HR [1, 11]: 58.6%
FLUORESCENCE - PERCENT POSITIVE 4 HR [1, 11]: 62.1%
FLUORESCENCE - PERCENT POSITIVE 1 HR [1, 12]: 30.3%
FLUORESCENCE - PERCENT POSITIVE 2 HR [1, 12]: 57.6%
FLUORESCENCE - PERCENT POSITIVE 3 HR [1, 12]: 97%
FLUORESCENCE - PERCENT POSITIVE 4 HR [1, 12]: 100%
FLUORESCENCE - PERCENT POSITIVE 1 HR [1, 13]: 71.4%
FLUORESCENCE - PERCENT POSITIVE 2 HR [1, 13]: 100%
FLUORESCENCE - PERCENT POSITIVE 3 HR [1, 13]: 100%
FLUORESCENCE - PERCENT POSITIVE 4 HR [1, 13]: 100%
NO. GROWTH POSITIVE 168 HR [2, 11]: 29
NO. GROWTH POSITIVE 168 HR [2, 12]: 33
NO. GROWTH POSITIVE 168 HR [2, 13]: 21

OC[C@@H](O)[C@@H](O)[C@H](O)[C@@H](O)CO [Sorbitol]
FLUORESCENCE - PERCENT POSITIVE 1 HR [1, 14]: 0%
FLUORESCENCE - PERCENT POSITIVE 2 HR [1, 14]: 52.8%
FLUORESCENCE - PERCENT POSITIVE 3 HR [1, 14]: 83.3%
FLUORESCENCE - PERCENT POSITIVE 4 HR [1, 14]: 91.7%
FLUORESCENCE - PERCENT POSITIVE 1 HR [1, 13]: 5.4%
FLUORESCENCE - PERCENT POSITIVE 2 HR [1, 13]: 40.5%
FLUORESCENCE - PERCENT POSITIVE 3 HR [1, 13]: 81.1%
FLUORESCENCE - PERCENT POSITIVE 4 HR [1, 13]: 89.2%
GROWTH POSITIVE 168 HR [2, 14]: 36
NO. GROWTH POSITIVE 168 HR [2, 13]: 37

POE(10) Phytosterol
FLUORESCENCE - PERCENT POSITIVE 1 HR [1, 15]: 0%
FLUORESCENCE - PERCENT POSITIVE 2 HR [1, 15]: 0%
FLUORESCENCE - PERCENT POSITIVE 3 HR [1, 15]: 0%
FLUORESCENCE - PERCENT POSITIVE 4 HR [1, 15]: 0%
NO. GROWTH POSITIVE 168 HR [2, 15]: 2
